# Measured values from patent publication US9346798B2, “Dihydrobenzoxazine and tetrahydroquinoxaline sodium channel inhibitors” (AMGEN INC., priority 2012, dated 2016).
# How the values were obtained:
# Assay type in all cases: cell-based
# [1] = target: T1, Nav 1.7 (Homo sapiens (Human), UniProt Q15858); experiment: Nav 1.7 in vitro assay, IonWorks Quattro (IWQ) population patch-clamp; settings: HEK 293 cells stably transfected with Nav 1.7; 26th pulse to -20 mV
# [2] = target: T1, Nav 1.7; experiment: Nav 1.7 in vitro PX assay, PatchXpress whole cell voltage clamp; settings: HEK 293 cells stably transfected with human Nav1.7; for IC50: partially inactivated state (20 to 50% inactivation)
# In short: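 Partially inactivated channels (20–50% inactivation at holding potential) were probed on automated patch clamp in stably transfected HEK293 cells, stepping to −10 mV for 20 msec every 10 s (0.1 Hz).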
# [3] = target: Nav 1.5 (Homo sapiens (Human), UniProt Q14524); experiment: Nav 1.5 in vitro assay, IonWorks Quattro (IWQ) population patch-clamp; settings: HEK 293 cells stably transfected with Nav 1.5; 26th pulse to -20 mV
# Chain of Nav 1.5 (Q14524 whole entry): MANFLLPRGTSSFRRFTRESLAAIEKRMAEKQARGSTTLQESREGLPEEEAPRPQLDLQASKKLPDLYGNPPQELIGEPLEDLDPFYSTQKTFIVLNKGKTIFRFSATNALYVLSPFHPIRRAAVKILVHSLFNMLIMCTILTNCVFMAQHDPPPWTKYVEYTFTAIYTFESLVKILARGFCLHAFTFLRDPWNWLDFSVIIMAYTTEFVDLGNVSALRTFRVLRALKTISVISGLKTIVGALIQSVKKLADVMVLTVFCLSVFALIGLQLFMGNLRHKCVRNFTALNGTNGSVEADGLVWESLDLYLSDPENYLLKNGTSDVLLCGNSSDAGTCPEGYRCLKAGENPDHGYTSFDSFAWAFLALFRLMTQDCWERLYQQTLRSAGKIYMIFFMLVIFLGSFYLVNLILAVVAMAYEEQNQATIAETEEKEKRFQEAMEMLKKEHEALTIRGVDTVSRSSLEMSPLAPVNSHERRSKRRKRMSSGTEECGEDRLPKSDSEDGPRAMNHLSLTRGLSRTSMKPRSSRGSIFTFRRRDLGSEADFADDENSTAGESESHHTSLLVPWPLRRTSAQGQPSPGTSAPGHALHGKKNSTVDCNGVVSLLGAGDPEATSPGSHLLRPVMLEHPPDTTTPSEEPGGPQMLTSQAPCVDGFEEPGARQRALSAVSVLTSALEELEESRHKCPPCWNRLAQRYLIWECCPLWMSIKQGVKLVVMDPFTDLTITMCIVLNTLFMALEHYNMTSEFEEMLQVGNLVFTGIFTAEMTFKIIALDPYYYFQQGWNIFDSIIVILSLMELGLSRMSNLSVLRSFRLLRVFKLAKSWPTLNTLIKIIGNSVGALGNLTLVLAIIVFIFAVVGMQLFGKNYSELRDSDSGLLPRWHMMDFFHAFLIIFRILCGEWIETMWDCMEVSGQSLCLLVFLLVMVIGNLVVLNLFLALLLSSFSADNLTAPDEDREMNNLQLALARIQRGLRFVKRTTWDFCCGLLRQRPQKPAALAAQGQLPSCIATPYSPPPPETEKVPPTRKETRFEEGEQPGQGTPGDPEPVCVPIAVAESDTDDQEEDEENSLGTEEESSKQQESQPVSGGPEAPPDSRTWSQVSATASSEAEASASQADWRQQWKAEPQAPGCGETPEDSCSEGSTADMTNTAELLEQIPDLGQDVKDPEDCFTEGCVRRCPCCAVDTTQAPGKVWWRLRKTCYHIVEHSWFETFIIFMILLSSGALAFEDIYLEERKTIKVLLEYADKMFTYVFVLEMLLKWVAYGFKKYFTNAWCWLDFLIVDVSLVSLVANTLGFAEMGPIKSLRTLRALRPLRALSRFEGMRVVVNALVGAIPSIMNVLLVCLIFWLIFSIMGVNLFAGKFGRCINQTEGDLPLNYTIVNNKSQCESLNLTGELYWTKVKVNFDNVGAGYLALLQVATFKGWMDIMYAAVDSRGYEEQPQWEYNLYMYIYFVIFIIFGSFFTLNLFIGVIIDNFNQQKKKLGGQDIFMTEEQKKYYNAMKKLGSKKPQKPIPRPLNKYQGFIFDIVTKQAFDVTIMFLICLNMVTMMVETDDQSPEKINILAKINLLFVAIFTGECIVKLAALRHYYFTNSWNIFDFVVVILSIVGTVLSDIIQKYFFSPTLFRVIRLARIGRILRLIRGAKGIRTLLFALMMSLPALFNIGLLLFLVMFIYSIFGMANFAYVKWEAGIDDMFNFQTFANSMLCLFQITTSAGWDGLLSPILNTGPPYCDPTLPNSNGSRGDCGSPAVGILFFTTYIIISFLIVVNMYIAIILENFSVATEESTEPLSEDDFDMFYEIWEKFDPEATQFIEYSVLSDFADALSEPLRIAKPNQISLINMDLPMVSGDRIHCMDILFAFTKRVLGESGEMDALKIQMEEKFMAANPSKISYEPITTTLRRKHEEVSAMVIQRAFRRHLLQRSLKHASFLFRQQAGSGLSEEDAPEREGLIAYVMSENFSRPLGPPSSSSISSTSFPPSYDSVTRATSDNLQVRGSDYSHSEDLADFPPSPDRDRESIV
# T1 sequence (Q15858 whole entry): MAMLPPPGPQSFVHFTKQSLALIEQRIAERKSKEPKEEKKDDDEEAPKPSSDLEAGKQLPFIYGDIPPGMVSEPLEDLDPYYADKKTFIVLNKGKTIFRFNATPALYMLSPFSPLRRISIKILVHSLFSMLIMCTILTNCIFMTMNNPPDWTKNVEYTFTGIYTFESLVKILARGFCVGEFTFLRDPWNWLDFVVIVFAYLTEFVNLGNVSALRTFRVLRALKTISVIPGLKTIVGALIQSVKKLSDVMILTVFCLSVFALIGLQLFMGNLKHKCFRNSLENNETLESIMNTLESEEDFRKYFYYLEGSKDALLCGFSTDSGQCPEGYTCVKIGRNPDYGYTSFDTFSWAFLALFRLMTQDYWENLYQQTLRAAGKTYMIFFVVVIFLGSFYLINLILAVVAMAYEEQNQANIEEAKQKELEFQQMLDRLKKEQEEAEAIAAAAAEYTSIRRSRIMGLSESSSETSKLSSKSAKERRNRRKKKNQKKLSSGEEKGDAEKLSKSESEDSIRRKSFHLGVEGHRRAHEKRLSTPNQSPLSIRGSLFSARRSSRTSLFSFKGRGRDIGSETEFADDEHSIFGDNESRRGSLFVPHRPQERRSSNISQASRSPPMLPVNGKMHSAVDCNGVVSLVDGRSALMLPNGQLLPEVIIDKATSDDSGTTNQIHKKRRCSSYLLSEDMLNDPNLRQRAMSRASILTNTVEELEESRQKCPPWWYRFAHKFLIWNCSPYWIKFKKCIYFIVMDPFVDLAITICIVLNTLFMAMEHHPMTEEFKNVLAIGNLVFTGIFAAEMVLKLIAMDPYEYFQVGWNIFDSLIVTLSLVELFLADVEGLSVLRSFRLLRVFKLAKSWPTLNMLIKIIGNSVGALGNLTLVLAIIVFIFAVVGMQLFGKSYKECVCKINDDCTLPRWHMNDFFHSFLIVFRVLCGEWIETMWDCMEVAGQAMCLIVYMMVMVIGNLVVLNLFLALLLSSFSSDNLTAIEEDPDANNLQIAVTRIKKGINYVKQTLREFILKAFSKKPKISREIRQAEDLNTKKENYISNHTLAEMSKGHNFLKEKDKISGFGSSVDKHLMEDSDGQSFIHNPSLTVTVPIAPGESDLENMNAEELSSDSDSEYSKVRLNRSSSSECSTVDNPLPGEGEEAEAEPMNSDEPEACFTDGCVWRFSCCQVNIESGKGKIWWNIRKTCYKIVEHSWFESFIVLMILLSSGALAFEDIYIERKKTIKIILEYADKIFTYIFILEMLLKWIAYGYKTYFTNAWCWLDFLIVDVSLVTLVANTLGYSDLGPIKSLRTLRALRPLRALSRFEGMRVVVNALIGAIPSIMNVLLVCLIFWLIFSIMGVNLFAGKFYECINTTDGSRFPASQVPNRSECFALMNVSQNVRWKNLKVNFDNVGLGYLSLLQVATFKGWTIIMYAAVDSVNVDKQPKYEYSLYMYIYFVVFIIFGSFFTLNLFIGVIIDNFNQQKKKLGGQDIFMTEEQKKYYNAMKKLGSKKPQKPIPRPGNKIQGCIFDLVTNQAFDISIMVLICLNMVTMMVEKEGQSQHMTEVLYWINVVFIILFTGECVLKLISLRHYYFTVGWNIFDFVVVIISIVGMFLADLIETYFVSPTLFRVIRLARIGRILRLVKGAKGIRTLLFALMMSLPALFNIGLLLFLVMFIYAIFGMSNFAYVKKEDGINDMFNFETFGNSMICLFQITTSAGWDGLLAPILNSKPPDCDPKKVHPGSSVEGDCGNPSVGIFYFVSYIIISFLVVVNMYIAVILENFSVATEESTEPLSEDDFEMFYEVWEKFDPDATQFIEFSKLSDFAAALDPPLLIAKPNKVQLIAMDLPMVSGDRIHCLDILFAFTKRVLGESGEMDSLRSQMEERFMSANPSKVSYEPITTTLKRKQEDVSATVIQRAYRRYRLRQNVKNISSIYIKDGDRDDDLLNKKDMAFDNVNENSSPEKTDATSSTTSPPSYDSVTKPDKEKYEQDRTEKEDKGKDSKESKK
IC50 [1] [nM],IC50 [2] [nM],"inhibition at 4.9 µM ([2]; HEK293, values marked *, 4.9 μM, read-out: Nav 1.7 PX percent inhibition at 4.9 μM) [%]",SMILES,IC50 [3] [µM]
309,5170,–,"COc1ccncc1N1CCOc2cc(S(=O)(=O)Nc3nccs3)ccc21 [Example 190, 4-(4-Methoxypyridin-3-Yl)-N-(Thiazol-2-Yl)-3,4-Dihydro-2H-Benzo[B][1,4]Oxazine-7-Sulfonamide]",> 10
107,1990,–,"O=S(=O)(Nc1nccs1)c1ccc2c(c1)OCCN2c1ccccc1-c1ccncc1 [Example 147, 4-(2-(Pyridin-4-yl)phenyl)-N-(thiazol-2-yl)-3,4-dihydro-2H-benzo[b][1,4]oxazine-7-sulfonamide]",> 10
1010,9070,–,"COc1cnc(N2CCOc3cc(S(=O)(=O)Nc4nccs4)ccc32)c(OC)n1 [Example 143, 4-(3,5-Dimethoxypyrazin-2-yl)-N-(thiazol-2-yl)-3,4-dihydro-2H-benzo[b][1,4]oxazine-7-sulfonamide]",> 10
69.5,415,–,"COc1ccc(OC)c(N2CCOc3cc(S(=O)(=O)Nc4nccs4)ccc32)c1 [Example 139, 4-(2,5-Dimethoxyphenyl)-N-(thiazol-2-yl)-3,4-dihydro-2H-benzo[b][1,4]oxazine-7-sulfonamide]",7.04
66.5,782,–,"Cn1nccc1-c1ccccc1N1CCOc2cc(S(=O)(=O)Nc3nccs3)ccc21 [Example 148, 4-(2-(1-Methyl-1H-pyrazol-5-yl)phenyl)-N-(thiazol-2-yl)-3,4-dihydro-2H-benzo[b][1,4]oxazine-7-sulfonamide]",> 10
385,3100,–,"COc1ccc(C#N)c(N2CCOc3cc(S(=O)(=O)Nc4nccs4)ccc32)c1 [Example 189, 4-(2-Cyano-5-Methoxyphenyl)-N-(Thiazol-2-Yl)-3,4-Dihydro-2H-Benzo[B][1,4]Oxazine-7-Sulfonamide]",7.59
144,150,–,"N#Cc1cc(-c2cccc(F)c2)ccc1N1CCOc2cc(S(=O)(=O)Nc3nccs3)ccc21 [Example 200, 4-(3-Cyano-3′-Fluoro-[1,1′-Biphenyl]-4-Yl)-N-(Thiazol-2-Yl)-3,4-Dihydro-2H-Benzo[B][1,4]Oxazine-7-Sulfonamide]",0.854
564,3030,–,"Cc1onc(-c2ccccc2)c1CN1CCOc2cc(S(=O)(=O)Nc3nccs3)ccc21 [Example 221, 4-((5-Methyl-3-Phenylisoxazol-4-Yl)Methyl)-N-(Thiazol-2-Yl)-3,4-Dihydro-2H-Benzo[B][1,4]Oxazine-7-Sulfonamide]",> 10
571,4040,–,"O=S(=O)(Nc1nccs1)c1ccc2c(c1)OCCN2c1ccc(Cl)c(C(F)(F)F)c1 [Example 125, 4-(4-Chloro-3-(trifluoromethyl)phenyl)-N-(thiazol-2-yl)-3,4-dihydro-2H-benzo[b][1,4]oxazine-7-sulfonamide]",6.55
93.5,428,–,"CC(C)c1ccc(N2CCOc3cc(S(=O)(=O)Nc4nccs4)ccc32)c(C#N)c1 [Example 202, 4-(2-cyano-4-isopropylphenyl)-N-(thiazol-2-yl)-3,4-dihydro-2H-benzo[b][1,4]oxazine-7-sulfonamide]",0.686
671,6420,–,"O=S(=O)(Nc1nccs1)c1ccc2c(c1)OCCN2c1ccc(-n2cccn2)cc1 [Example 141, 4-(4-(1H-pyrazol-1-yl)phenyl)-N-(thiazol-2-yl)-3,4-dihydro-2H-benzo[b][1,4]oxazine-7-sulfonamide]",2.5
327,4970,–,"O=S(=O)(Nc1ccncn1)c1ccc2c(c1)OCCN2c1ncc(C(F)(F)F)cc1Cl [Example 99, 4-(3-Chloro-5-(Trifluoromethyl)Pyridin-2-Yl)-N-(Pyrimidin-4-Yl)-3,4-Dihydro-2H-Benzo[B][1,4]Oxazine-7-Sulfonamide]",> 10
635,5290,–,"O=S(=O)(Nc1nccs1)c1ccc2c(c1)OCCN2c1cncc(Cl)c1 [Example 130, 4-(5-Chloropyridin-3-yl)-N-(thiazol-2-yl)-3,4-dihydro-2H-benzo[b][1,4]oxazine-7-sulfonamide]",6.2
249,1980,–,"COc1ccc(C)nc1N1CCOc2cc(S(=O)(=O)Nc3nccs3)ccc21 [Example 109, 4-(3-methoxy-6-methyl-2-pyridinyl)-N-1,3-thiazol-2-yl-3,4-dihydro-2H-1,4-benzoxazine-7-sulfonamide]",> 10

# Continued, compound first:
SMILES,IC50 [1] [nM],IC50 [2] [nM],"inhibition at 4.9 µM ([2]; HEK293, values marked *, 4.9 μM, read-out: Nav 1.7 PX percent inhibition at 4.9 μM) [%]",IC50 [3] [µM]
"O=S(=O)(Nc1ccc(F)cn1)c1ccc2c(c1)OCCN2c1ccc(C(F)(F)F)cc1Cl [Example 17, 4-(2-Chloro-4-(Trifluoromethyl)Phenyl)-N-(5-Fluoropyridin-2-Yl)-3,4-Dihydro-2H-Benzo[B][1,4]Oxazine-7-Sulfonamide]",3630,–,24.1,> 10
"C[C@@H]1COc2cc(S(=O)(=O)Nc3nccs3)ccc2N1c1ccc(C(F)(F)F)cc1C#N (single isomer, unassigned) [Example 97]",208,772,–,0.851
"O=S(=O)(Nc1nccs1)c1ccc2c(c1)OCCN2c1ccc(C(F)(F)F)cc1Br [Example 43, 4-(2-Bromo-4-(Trifluoromethyl)Phenyl)-N-(Thiazol-2-Yl)-3,4-Dihydro-2H-Benzo[B][1,4]Oxazine-7-Sulfonamide]",115,975,–,1.85
"Cc1ccc(F)cc1N1CCOc2cc(S(=O)(=O)Nc3nccs3)ccc21 [Example 79, 4-(5-Fluoro-2-Methylphenyl)-N-(Thiazol-2-Yl)-3,4-Dihydro-2H-Benzo[B][1,4]Oxazine-7-Sulfonamide 2,2,2-Trifluoroacetate]",216,1180,–,> 10
"N#Cc1cc(C(F)(F)F)ccc1N1CCOc2cc(S(=O)(=O)Nc3nccs3)cc(F)c21 [Example 218, 4-(2-Cyano-4-(Trifluoromethyl)Phenyl)-5-Fluoro-N-(Thiazol-2-Yl)-3,4-Dihydro-2H-Benzo[B][1,4]Oxazine-7-Sulfonamide]",193,1990,–,0.385
"N#Cc1cc(C(F)(F)F)ccc1N1CCOc2cc(S(=O)(=O)Nc3nccs3)c(F)cc21 [Example 215, 4-(2-Cyano-4-(Trifluoromethyl)Phenyl)-6-Fluoro-N-(Thiazol-2-Yl)-3,4-Dihydro-2H-Benzo[B][1,4]Oxazine-7-Sulfonamide]",9.86,183,–,0.203
"N#Cc1cc(C(F)(F)F)ccc1N1CCOc2cc(S(=O)(=O)Nc3nccs3)ccc21 [Example 49, 4-(2-Cyano-4-(Trifluoromethyl)Phenyl)-N-(Thiazol-2-Yl)-3,4-Dihydro-2H-Benzo[B][1,4]Oxazine-7-Sulfonamide]",15,193,–,1.15
"O=S(=O)(Nc1ncns1)c1ccc2c(c1)OCCN2c1ccc(C(F)(F)F)cc1Cl [Example 2, 4-(2-Chloro-4-(Trifluoromethyl)Phenyl)-N-(1,2,4-Thiadiazol-5-Yl)-3,4-Dihydro-2H-Benzo[B][1,4]Oxazine-7-Sulfonamide]",7.83,38.6,–,> 10
"O=S(=O)(Nc1ncns1)c1ccc2c(c1)OCCN2c1ccccc1 [Example 30, 4-Phenyl-N-(1,2,4-Thiadiazol-5-Yl)-3,4-Dihydro-2H-Benzo[B][1,4]Oxazine-7-Sulfonamide]",142,756,–,> 10
"Cc1c(F)cccc1N1CCOc2cc(S(=O)(=O)Nc3nccs3)ccc21 [Example 78, 4-(3-Fluoro-2-Methylphenyl)-N-(Thiazol-2-Yl)-3,4-Dihydro-2H-Benzo[B][1,4]Oxazine-7-Sulfonamide 2,2,2-Trifluoroacetate]",249,2220,–,> 10
"O=S(=O)(Nc1ncns1)c1ccc2c(c1)OCC(c1ccccc1)N2c1ccc(C(F)(F)F)cc1 (stereo not drawn) [Example 34, 3-Phenyl-N-(1,2,4-Thiadiazol-5-Yl)-4-(4-(Trifluoromethyl)Phenyl)-3,4-Dihydro-2H-Benzo[B][1,4]Oxazine-7-Sulfonamide]",2450,3460,–,> 10
"N#Cc1cc(C(F)(F)F)ccc1N1CCOc2cc(S(=O)(=O)Nc3nccs3)c(Cl)cc21 [Example 212, 6-Chloro-4-(2-Cyano-4-(Trifluoromethyl)Phenyl)-N-(Thiazol-2-Yl)-3,4-Dihydro-2H-Benzo[B][1,4]Oxazine-7-Sulfonamide]",21.3,373,–,0.736
"O=S(=O)(Nc1cnccn1)c1ccc2c(c1)OCCN2c1ccc(C(F)(F)F)cc1C1=CCNCC1 [Example 88, N-(Pyrazin-2-Yl)-4-(2-(1,2,3,6-Tetrahydropyridin-4-Yl)-4-(Trifluoromethyl)Phenyl)-3,4-Dihydro-2H-Benzo[B][1,4]Oxazine-7-Sulfonamide]",224,737,–,> 10
"O=S(=O)(Nc1ncns1)c1ccc2c(c1)OCCN2c1cccc2ncccc12 [Example 33, 4-(Quinolin-5-Yl)-N-(1,2,4-Thiadiazol-5-Yl)-3,4-Dihydro-2H-Benzo[B][1,4]Oxazine-7-Sulfonamide]",141,1190,–,> 10
"COc1cc(C#N)ccc1N1CCOc2cc(S(=O)(=O)Nc3nccs3)c(F)cc21 [Example 217, 4-(4-Cyano-2-Methoxyphenyl)-6-Fluoro-N-(Thiazol-2-Yl)-3,4-Dihydro-2H-Benzo[B][1,4]Oxazine-7-Sulfonamide]",8,207,–,1.31
